Data: paper PMC10817170, “Effect of an NHE3 inhibitor in combination with an NPT2b inhibitor on gastrointestinal phosphate absorption in Rodent models” (PLOS ONE, 2024)
Several values for one entry are separate records, joined by “and”; a condition that tells them apart may be missing. Identical values can stand only once.

How the values were obtained:
[1] = biological target: T1, Human NHE3 (Homo sapiens, UniProt P48764); assay: NHE3 activity assay (intracellular pH recovery, BCECF-AM) in human NHE3 over-expressing NHD C8 cells; format: cell-based
T1 construct: myc
T1 sequence (P48764 26-834): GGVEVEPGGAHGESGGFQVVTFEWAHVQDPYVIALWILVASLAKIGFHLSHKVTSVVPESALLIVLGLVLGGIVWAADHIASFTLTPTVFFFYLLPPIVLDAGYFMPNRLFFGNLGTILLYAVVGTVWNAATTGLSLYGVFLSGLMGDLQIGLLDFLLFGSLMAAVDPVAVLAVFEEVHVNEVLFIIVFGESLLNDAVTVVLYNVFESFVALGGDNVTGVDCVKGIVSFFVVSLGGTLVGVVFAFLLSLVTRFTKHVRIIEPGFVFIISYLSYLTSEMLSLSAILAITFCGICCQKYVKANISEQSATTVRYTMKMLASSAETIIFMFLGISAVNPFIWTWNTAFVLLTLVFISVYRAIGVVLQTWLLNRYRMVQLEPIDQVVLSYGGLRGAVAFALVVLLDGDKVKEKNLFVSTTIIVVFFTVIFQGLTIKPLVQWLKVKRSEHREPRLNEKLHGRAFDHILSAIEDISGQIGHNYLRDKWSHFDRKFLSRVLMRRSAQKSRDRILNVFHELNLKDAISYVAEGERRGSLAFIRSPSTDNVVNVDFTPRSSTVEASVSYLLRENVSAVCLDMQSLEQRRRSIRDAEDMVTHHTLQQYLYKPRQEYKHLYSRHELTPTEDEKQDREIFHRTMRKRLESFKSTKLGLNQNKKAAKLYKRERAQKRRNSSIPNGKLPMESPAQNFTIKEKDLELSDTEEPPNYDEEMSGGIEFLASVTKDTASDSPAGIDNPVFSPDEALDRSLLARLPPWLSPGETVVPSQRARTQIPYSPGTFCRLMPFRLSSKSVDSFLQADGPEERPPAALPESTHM
From the text: Sodium hydrogen exchanger activity specific to NHE3 was achieved by overexpressing human NHE3 in an endogenously NHE-deficient cell line generated by chemical-induced mutagenesis. After the mutagenesis, NHE-deficient cells were selected by loading lithium into the cells and then exposing them to an acidic extracellular environment. Under these conditions, NHE exchanges intracellular lithium for extracellular protons, thus only NHE-deficient cells can avoid a toxic intracellular acidosis and survive. Dede cells (ATCC ccl-39), grown to 50% confluence in McCoy’s 5A medium (GE Healthcare) with 10% FBS and antibiotic/antimycotic solution (GE Healthcare) in a T75 flask, were treated with 500 μg/mL of EMS (ethyl methanesulfonate, Sigma-Aldrich) in medium for 20 hours for mutagenesis and washed twice with phosphate buffered saline (PBS). The cells were then trypsinized, plated in two T175 flasks and cultured in fresh medium without EMS for 2 days. […] The intracellular pH change is then measured by an intracellular pH-sensitive dye, 2’,7’-Bis-(2-carboxyethyl)-5(and-6)-carboxyfluorescein, acetoxymethyl ester (BCECF-AM, ThermoFisher Scientific) upon reintroduction of sodium. […] The plate was immediately read for fluorescence at the excitation wavelength of 505 nm and the emission wavelength of 550 nm using a kinetic method by Molecular Device, SpectraMax i3. […]

[2] = tested on: Madin-Darby Canine Kidney (MDCK) cell; assay: MDCK cell uni-directional permeability assay; format: in vitro ADME; conditions: 20 µM, one hour, 24-well format
Procedure: LY3304000 has very low in vitro cell permeability. In a standard Madin-Darby Canine Kidney (MDCK) cell uni-directional permeability assay, measuring the percentage A to B (% A-B) transport in a 24-well format, the % A-B of LY330400 transport is 0.16 % at 20 µM for the assay duration of one hour.

slope of the concentration-response curve ([1]; 4-parameter fit, representative curve): 0.8
IC50 ([1]; geometric mean of individual IC50, n=7): 5.8 nM and 5.76 nM
percentage A to B (% A-B) transport [2]: 0.16%
SMILES: CN1Cc2c(Cl)cc(Cl)cc2[C@H](c2cccc(S(=O)(=O)NCCOCCOCCN/C(=N\C(N)=O)NCCCCN/C(=N/C(N)=O)NCCOCCOCCNS(=O)(=O)c3cccc([C@@H]4CN(C)Cc5c(Cl)cc(Cl)cc54)c3)c2)C1.Cl.Cl [LY3304000, (Z)-[[4-[[(Z)-N’-carbamoyl-N-[2-[2-[2-[[3-[(4S)-6,8-dichloro-2-methyl-3,4-dihydro-1H-isoquinolin-4-yl]phenyl]sulfonylamino]ethoxy]ethoxy]ethyl]carbamimidoyl]amino]butylamino]-[2-[2-[2-[[3-[(4S)-6,8-dichloro-2-methyl-3,4-dihydro-1H-isoquinolin-4-yl]phenyl]sulfonylamino]ethoxy]ethoxy]ethylamino]methylene]urea dihydrochloride]
